Assay results reported in patent US20120083522A1, “MODULATION OF INFLAMMATORY RESPONSES BY FACTOR XI” (Isis Pharmaceuitcals, inc., priority 2009, published 2012).
In the oligonucleotide strings, read from the 5' end, every base follows the letter of its sugar. An asterisk marks phosphorothioate; unmarked linkages are phosphodiester. Other units and linkages are bracketed, terminal groups are in braces. A string of capitals states the bases alone. e = 2'-O-(2-methoxyethyl) (MOE); [5mC] = 5-methylcytosine; d = 2'-deoxy (DNA)

Columns and labels:
[1] = parameters: species or system Sprague-Dawley rats; details: rat, in vivo, sc, 20 mg/kg
Description: The concentration of the full-length oligonucleotide as well as the total oligonucleotide concentration (including the degraded form) was measured. The method used is a modification of previously published methods (Leeds et al., 1996; Geary et al., 1999) which consist of a phenol-chloroform (liquid-liquid) extraction followed by a solid phase extraction. An internal standard (ISIS 355868, a 27-mer 2′-O-methoxyethyl modified phosphorothioate oligonucleotide, […], designated herein as SEQ ID NO: 270) was added prior to extraction. […] The results are presented in Tables 98 and 99, expressed as μg/g liver or kidney tissue.

human Factor XI mRNA [2] = test: Antisense inhibition in HepG2 cells by microwalk gapmers, 8,000 nM, electroporation (Example 14); format: cell-based; details: HepG2 cells, 8,000 nM
How it was run: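 Percent reduction of Factor XI transcript, relative to untreated controls, by real-time PCR with RIBOGREEN normalisation. Readout taken about 24 h after electroporating HepG2 cells with 8,000 nM oligonucleotide. Gapmers are 5-10-5, 5-8-5 or 6-8-6 MOE wings, phosphorothioate backbone.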

human Factor XI mRNA [3] = test: Antisense inhibition in HepG2 cells by microwalk gapmers, 75 nM, lipofectin (Example 3); format: cell-based; details: HepG2 cells, 75 nM, oligonucleotides targeted to nucleobases 1275 to 1318 of SEQ ID NO: 1
How it was run: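 HepG2 cells (10,000 per well) were transfected with 75 nM gapmer using lipofectin and treated for about 24 h. Factor XI mRNA was quantified by real-time PCR, normalized to RiboGreen total RNA and expressed as percent inhibition versus untreated controls.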

Factor XI mRNA = test: Cynomolgus monkeys, 25 mg/kg: liver Factor XI RNA analysis (Example 30); format: in vivo; details: cynomolgus monkeys, day 55, in comparison to the PBS control
Description: (§1) Groups, each consisting of two male and two female monkeys, were injected subcutaneously with 25 mg/kg of ISIS 416850, ISIS 449709, ISIS 445522, ISIS 449710, ISIS 449707, ISIS 449711, ISIS 449708, 416858 and ISIS 445531. Antisense oligonucleotide was administered to the monkeys at 25 mg/kg three times per week for week 1 and 25 mg/kg twice per week for weeks 2 to 8. A control group, consisting of two male and two female monkeys was injected subcutaneously with PBS according to the same dosing regimen. Body weights were taken 14 days and 7 days before the start of treatment and were then measured weekly throughout the treatment period. Blood samples were collected 14 days and 5 days before the start of treatment and subsequently several times during the dosing regimen for measurement of various hematologic factors. On day 55, the monkeys were euthanized by exsanguination while under deep anesthesia, and organs harvested for further analysis.
On day 55, RNA was extracted from liver tissue for real-time PCR analysis of Factor XI using primer probe set LTS00301. Results are presented as percent inhibition of Factor XI, relative to PBS control.

[4] = system: IL-1β, IL-6, IFN-γ, TNF-α, IL-8, MIP-1α, MCP-1, MIP-10, RANTES; test: Cynomolgus monkeys: cytokine and chemokine assays (Example 30); format: in vivo
Description: as §1
Blood samples obtained from all monkey groups were sent to Pierce Biotechnology (Woburn, Mass.) for measurements of chemokine and cytokine levels. Levels of IL-1β, IL-6, IFN-γ, and TNF-α were measured using the respective primate antibodies and levels of IL-8, MIP-1α, MCP-1, MIP-10 and RANTES were measured using the respective cross-reacting human antibodies. Measurements were taken 14 days before the start of treatment and on day 55, when the monkeys were euthanized.

[5] = Cynomolgus monkeys: hematology assays (Example 29); format: in vivo
Description: (§2) Groups, each consisting of two male and three female monkeys, were injected subcutaneously with ISIS 416838, ISIS 416850, ISIS 416858, ISIS 416864, or ISIS 417002 in escalating doses. Antisense oligonucleotide was administered to the monkeys at 5 mg/kg three times per a week for week 1; 5 mg/kg twice per week for weeks 2 and 3; 10 mg/kg three times per week for week 4; 10 mg/kg twice per week for weeks 5 and 6; 25 mg/kg three times per week for week 7; and 25 mg/kg twice per week for weeks 8, 9, 10, 11, and 12. One control group, consisting of two male and three female monkeys, was injected subcutaneously with PBS according to the same dosing regimen. An additional experimental group, consisting of two male and three female monkeys, was injected subcutaneously with ISIS 416850 in a chronic, lower dose regimen. Antisense oligonucleotide was administered to the monkeys at 5 mg/kg three times per week for week 1; 5 mg/kg twice per week for week 2 and 3; 10 mg/kg three times per week for week 4; and 10 mg/kg twice per week for weeks 5 to 12. Body weights were measured weekly. Blood samples were collected 14 days and 5 days before the start of treatment and subsequently once per week for Factor XI protein activity analysis in plasma and measurement of various hematologic factors. On day 85, the monkeys were euthanized by exsanguination while under deep anesthesia, and organs harvested for further analysis.
The ISIS oligonucleotide, ISIS 416850, given with the chronic dose regimen is distinguished from the other oligonucleotides with an asterisk (*).

[6] = Cynomolgus monkeys: body and organ weights (Example 29); format: in vivo; details: for Body weight: escalating doses 5, 10, 25 mg/kg s.c.
Description: as §2
Body weights were taken once weekly throughout the dosing regimen. […] Organ weights were taken after the animals were euthanized and livers, kidneys and spleens were harvested and weighed. […] The ISIS oligonucleotide, ISIS 416850, given with the chronic dose regimen is distinguished from the other oligonucleotides with an asterisk (*).

Factor XI protein [7] = test: Cynomolgus monkeys: plasma Factor XI protein ELISA (Example 30); format: in vivo; details: cynomolgus monkeys, Example 30
Description: as §1
(§3) Plasma samples from all monkey groups taken on different days were analyzed by a sandwich-style ELISA assay (Affinity Biologicals Inc.) using an affinity-purified polyclonal anti-Factor XI antibody as the capture antibody and a peroxidase-conjugated polyclonal anti-Factor XI antibody as the detecting antibody. Monkey plasma was diluted 1:50 for the assay. Peroxidase activity was expressed by incubation with the substrate o-phenylenediamine. The color produced was quantified using a microplate reader at 490 nm and was considered to be proportional to the concentration of Factor XI in the samples.
The results are presented in Table 148, expressed as percentage reduction relative to that of the PBS control.

Factor XI protein [8] = test: Cynomolgus monkeys: plasma Factor XI protein ELISA (Example 29); format: in vivo; details: for Inhibition of Factor XI protein relative to the PBS control: escalating doses 5, 10, 25 mg/kg s.c.
Description: as §2, §3
The results are presented in Table 122, expressed as percentage reduction relative to that of the PBS control.

[9] = Tolerability in CD1 mice: body and organ weight (Example 25); format: in vivo; details: 50 mg/kg s.c. twice per week for 6 weeks; for Kidney weight as percentage of body weight / Liver weight as percentage of body weight / Spleen weight as percentage of body weight: end of study
[10] = day −14 (before start of treatment)

## 416848 (antisense CACAGTTTCTGGCAGGCCTC; 5-10-5 gapmer, wing sugar chemistry not given here, further chemistry not given here) [compound 416848]
[1]
  Half-life in the liver and kidney: 24 days
Human Factor XI mRNA [2]
  Percent inhibition of human Factor XI mRNA levels: 87%
Human Factor XI mRNA [3]
  % inhibition of human Factor XI mRNA levels: 86%

## 416852 (antisense TGGTGCACAGTTTCTGGCAG; 5-10-5 gapmer, wing sugar chemistry not given here, further chemistry not given here) [compound 416852]
[1]
  Half-life in the liver and kidney: 28 days
Human Factor XI mRNA [2]
  Percent inhibition of human Factor XI mRNA levels: 87%
Human Factor XI mRNA [3]
  % inhibition of human Factor XI mRNA levels: 84%

## ISIS 416858: gapmer of Table 8 (antisense eA*e[5mC]*eG*eG*e[5mC]*dA*dT*dT*dG*dG*dT*dG*d[5mC]*dA*d[5mC]*eA*eG*eT*eT*eT)
Factor XI mRNA
  Factor XI mRNA in liver (in words): significant reduction of Factor XI mRNA
[4]; 25 mg/kg s.c., day 55
  IL-1β level: 28 pg/mL
  MIP-1β level: 47 pg/mL
[4]; [10]
  IL-1β level: 103 pg/mL
  MIP-1β level: 37 pg/mL
[5]; day 8
  platelet count: 391000 µL⁻¹
[5]; day 15
  platelet count: 400000 µL⁻¹
[5]; day 22
  platelet count: 316000 µL⁻¹
[5]; day 29
  platelet count: 336000 µL⁻¹
[5]; day 36
  platelet count: 371000 µL⁻¹
[5]; day 43
  platelet count: 342000 µL⁻¹
[5]; day 50
  platelet count: 331000 µL⁻¹
[5]; day 57
  platelet count: 333000 µL⁻¹
[5]; day 64
  platelet count: 295000 µL⁻¹
[5]; day 71
  platelet count: 286000 µL⁻¹
[5]; day 78
  platelet count: 262000 µL⁻¹
[5]; day 85
  platelet count: 267000 µL⁻¹
[5]; day −5
  platelet count: 463000 µL⁻¹
[5]; day −14
  platelet count: 419000 µL⁻¹
[6]; Example 29
  spleen weight (in words): increase in spleen weight
[6]; after euthanasia
  Kidney weight: 13 g
  Liver weight: 60 g
  Spleen weight: 12 g
[6]; day 1
  Body weight: 2912 g
[6]; day 8
  Body weight: 2740 g
[6]; day 15
  Body weight: 2760 g
[6]; day 22
  Body weight: 2800 g
[6]; day 29
  Body weight: 2763 g
[6]; day 36
  Body weight: 2584 g
[6]; day 43
  Body weight: 2607 g
[6]; day 50
  Body weight: 2646 g
[6]; day 57
  Body weight: 2617 g
[6]; day 64
  Body weight: 2618 g
[6]; day 71
  Body weight: 2865 g
[6]; day 78
  Body weight: 2713 g
Factor XI protein [7]
  Factor XI protein levels (in words): time-dependent decrease in protein levels
Factor XI protein [8]; Example 29
  Factor XI protein levels (in words): time-dependent decrease in protein levels
Factor XI protein [8]; day 8
  Inhibition of Factor XI protein relative to the PBS control: 6%
Factor XI protein [8]; day 15
  Inhibition of Factor XI protein relative to the PBS control: 16%
Factor XI protein [8]; day 22
  Inhibition of Factor XI protein relative to the PBS control: 23%
Factor XI protein [8]; day 29
  Inhibition of Factor XI protein relative to the PBS control: 28%
Factor XI protein [8]; day 36
  Inhibition of Factor XI protein relative to the PBS control: 35%
Factor XI protein [8]; day 43
  Inhibition of Factor XI protein relative to the PBS control: 39%
Factor XI protein [8]; day 50
  Inhibition of Factor XI protein relative to the PBS control: 49%
Factor XI protein [8]; day 57
  Inhibition of Factor XI protein relative to the PBS control: 60%
Factor XI protein [8]; day 64
  Inhibition of Factor XI protein relative to the PBS control: 68%
Factor XI protein [8]; day 71
  Inhibition of Factor XI protein relative to the PBS control: 71%
Factor XI protein [8]; day 78
  Inhibition of Factor XI protein relative to the PBS control: 73%
Factor XI protein [8]; day 85
  Inhibition of Factor XI protein relative to the PBS control: 78%
Factor XI protein [8]; day −5 (before treatment)
  Inhibition of Factor XI protein relative to the PBS control: 0%
Factor XI protein [8]; day −14 (before treatment)
  Inhibition of Factor XI protein relative to the PBS control: 0%

## ISIS 445522: microwalk gapmer of Table 51 (antisense eG*e[5mC]*eA*e[5mC]*eA*dG*dT*dT*dT*d[5mC]*dT*dG*dG*e[5mC]*eA*eG*eG*e[5mC])
Factor XI mRNA
  Factor XI mRNA in liver (in words): significant reduction of Factor XI mRNA
[4]; 25 mg/kg s.c., day 55
  IL-1β level: 341 pg/mL
  MIP-1β level: 63 pg/mL
[4]; [10]
  IL-1β level: 188 pg/mL
  MIP-1β level: 27 pg/mL
Factor XI protein [7]
  Factor XI protein levels (in words): time-dependent decrease in protein levels
[9]
  Body weight (increase over PBS control weight before start of treatment): 11 g
  Kidney weight as percentage of body weight: 1.7%
  Liver weight as percentage of body weight: 6%
  Spleen weight as percentage of body weight: 0.4%

## ISIS 445531: microwalk gapmer of Table 51 (antisense eG*eG*e[5mC]*eA*eT*dT*dG*dG*dT*dG*d[5mC]*dA*d[5mC]*eA*eG*eT*eT*eT)
Factor XI mRNA
  Factor XI mRNA in liver (in words): significant reduction of Factor XI mRNA
[4]; 25 mg/kg s.c., day 55
  IL-1β level: 155 pg/mL
  MIP-1β level: 84 pg/mL
[4]; [10]
  IL-1β level: 101 pg/mL
  MIP-1β level: 22 pg/mL
[9]
  Body weight (increase over PBS control weight before start of treatment): 10 g
  Kidney weight as percentage of body weight: 1.5%
  Liver weight as percentage of body weight: 6%
  Spleen weight as percentage of body weight: 0.5%

## ISIS 449709: microwalk gapmer of Table 53 (antisense eG*e[5mC]*eA*e[5mC]*dA*dG*dT*dT*dT*d[5mC]*dT*dG*dG*d[5mC]*eA*eG*eG*e[5mC])
Factor XI mRNA
  Factor XI mRNA in liver (in words): significant reduction of Factor XI mRNA
[4]; 25 mg/kg s.c., day 55
  IL-1β level: 181 pg/mL
  MIP-1β level: 47 pg/mL
[4]; [10]
  IL-1β level: 137 pg/mL
  MIP-1β level: 14 pg/mL
Factor XI protein [7]
  Factor XI protein levels (in words): time-dependent decrease in protein levels

## ISIS 449710: microwalk gapmer of Table 53 (antisense e[5mC]*eA*e[5mC]*dA*dG*dT*dT*dT*d[5mC]*dT*dG*dG*d[5mC]*eA*eG*eG)
Factor XI mRNA
  Factor XI mRNA in liver (in words): significant reduction of Factor XI mRNA
[4]; 25 mg/kg s.c., day 55
  IL-1β level: 286 pg/mL
  MIP-1β level: 53 pg/mL
[4]; [10]
  IL-1β level: 271 pg/mL
  MIP-1β level: 18 pg/mL
